Measured values taken from patent US20230233584A1, “EXTENDED RELEASE 5-HT RECEPTOR AGONISTS FOR NEUROLOGICAL CONDITIONS” (Diamond Therapeutics Inc., priority 2020, published 2023).
“Also recorded” adds a separate entry of the source.

Legend:
Assay type in all cases: in vivo
Long Evans rats [1] = test: 5CSRTT, acute dosing, 10 s ITI, premature (PREM) and perseverant (PSV) responses
Text: Using a longer duration between stimulus and reward, the 5CSRTT study measures premature (PREM) and perseverant (PSV) responses. PREM/PSV responses were increased by increasing the ITI from 5 s (baseline) to 10 s (test condition). […] Both PREM and PSV behaviors are examples of executive cognitive function, likely involving areas of the prefrontal cortex, a brain region rich in 5-HT2A receptors.

[2] = tested on: 5-HT2A receptor activation; test: Motor activity and overt stereotypies during minipump dosing; settings: psilocybin minipump, 12 days, rats
Protocol: There were no changes in motor activity (distance travelled, rearing counts), or induction of overt stereotypies, including cardinal signs of 5-HT2A receptor activation (Wet Dog Shakes and Back Muscle Contractions (WDS, BMD). At the completion of 12 days testing the rats were euthanized and cardiac and brain tissue were collected and snap frozen. Histological analysis was performed for the samples.

Long Evans rats [3] = test: 5-choice serial reaction time task (5CSRTT), acute dosing, standard conditions; settings: for pro-cognitive effect measured as % hit: p=0.05
Protocol: General: Experiments were conducted to test psilocybin doses in the range of 0.01-0.2 mg/kg psilocybin administered S.C. across progressive ratio (PR) and 5-choice serial reaction time task (5CSRTT) to examine the effect of psilocybin on endophenotypes of motivation and attention. In each study, a population of out-bred Long Evans rats was first tested as a group for response to the PR and 5CSRTT. Each group was then divided into subgroups by tertiles according to performance, and then exposed to various dose levels immediately prior to re-testing at various psilocybin dose levels.
The 5CSRTT involves evaluating test subject response to a brief visual stimulus (Higgins, Guy & Silenieks, Leonardo. (2017). Rodent Test of Attention and Impulsivity: The 5-Choice Serial Reaction Time Task: The 5-Choice Serial Reaction Time Task. 10.1002/cpph.27). Animals are trained to make a nose-poke response to a stimulus location in order to collect a food reward. The task allows the experimenter to measure animal performance in multiple domains including: • Attention • Impulsivity • Perseveration • Speed of response
A strength of the test is its flexible configuration to challenge test subjects: • Standard test conditions (0.75 s stimulus duration (SD), 5 s inter-trial interval (ITI), 100 trials) • Multiple short stimulus duration (mSD) (0.03-1 s SD) • Fixed long ITI (5 s vs. 10 s ITI) • Multiple ultrashort ITI (2-5 s ITI) • Extended 250 trials
Asterisk (*) indicates statistical significance vs. vehicle. (FIG. 3A).
When this population is segmented into tertiles according to performance based on accuracy (% correct, calculated as # correct/(# correct+# incorrect)*100), the lowest performing tertile (N=8) are considered to be low attentive and potentially representative of a low attentive endophenotype of depression (FIG. 6A). Low attentive rats also score poorly on % hit (FIG. 6B) and have a slower response speed (FIG. 6D). […] Asterisk (*) indicates statistical significance vs. vehicle.

Long Evans rats [4] = test: 5-CSRTT during 12-day minipump (extended release) dosing of poor performing rats; settings: for increase in premature behaviors: minipump (ER dosing)
Protocol: The 5-choice serial reaction time task (5-CSRTT) was used to measure attentional performance in rodents. The test design involves training animals to respond to a brief visual stimulus presented unpredictably in one of five locations. Once trained to stable performance levels, the effects of experimental manipulations on response speed and choice accuracy were measured and each are related to attentional performance. The test was used to examine aspects of response control with responding prior to stimulus onset, i.e., a premature response, becoming a measure of motor impulsivity. The test is adaptable to task modification. Variations to stimulus duration (SD, 0.03-1 s duration) and frequency of stimulus presentation (2-10 s), amongst others have become commonly used to tax performance.
72 male Long Evans rats (source: Charles River, St. Constant, QE) were trained to asymptotic performance in the 5-CSRTT over a period of approximately 2 months. The rats were trained to final stimulus duration (SD) of 0.75 s, 5 s inter-trial interval (ITI), 5 s limited hold (LH), 100 trials per session. The rats were singly housed and food restricted to ˜20 g food/day throughout the study.
While the target performance levels under these conditions was in the range of >80% accuracy, <20% omissions, individual rats show different performance levels based on attentional accuracy or measures of impulsive action. The selection phase involves selecting the “worst” 40 rats based on both attentional performance (lowest performance based on accuracy measures of % correct/% hit) and/or impulsive action ([…] levels of premature responses noted at an extended 10 s ITI schedule and also baseline testing).
During the training period, 72 rats were trained on the 5-CSRTT, and the 40 worst performers. The 40 animals with the “worst” attentional performance (lowest performance based on accuracy measures of % correct, omissions and response speed) and impulsive action (PREM responses) were selected for the experiment. These 40 poor performing rats were allocated into one of two cohorts, with N=16 rats implanted with a vehicle (saline, Group A) minipumps and N=24 implanted with minipumps primed with psilocybin.
For 12 days following pump implantation surgery, rats were assessed for performance in the 5-CSRTT under (A) standard 5-CSRTT protocol (5 s ITI, 0.75 s SD, 100 trials) on days 1-4, 6-8, 10-11 (i.e. 9 days total run under this condition), and (B) the more difficult conditions of 10 s ITI, 0.3 s SD, 100 trials. The standard conditions were tested on days 1-4, 6-8, 10-11, and the more difficult conditions were tested on post-implant days 5, 9 and 12 (i.e. 3 days total run under this condition).
The result was significant on D2 (P<0.05). In FIG. 8A, B/L refers to ‘baseline’ conditions of 5 s ITI, 0.75 SD (calculated by taking the mean of the days immediately prior to and immediately following the test day). For example, B/L1 is the mean of performance on the days before and after D1 (since D1 is test day 5, B/L is mean of days 4 and 6).

5-HT2A receptor activity = test: Dose finding: behavioral syndrome, wet dog shakes (WDS) and back muscle contractions (BMC); settings: rats
Protocol: Psilocybin was tested at a dose range of 0.03-10.0 mg/kg administered subcutaneously (S.C.) Behavioral syndrome including wet dog shakes (WDS) and back muscle contractions (BMC) are characteristic of 5-HT2A receptor activity and potentially indicative of psychomotor signs. […] There is a parallel between behaviors such as WDS in rats and hallucination in humans (Behavioral Neurobiology of Psychedelic Drugs, Halberstadt, Adam, Vollenweider, Franz X., Nichols, David E. (Eds.), Springer, 2018, p 161).

[5] = 0.05 mg/kg S.C., 24 rats, standard conditions
[6] = 0.05-0.1 mg/kg S.C., standard conditions

SMILES: CN(C)CCc1c[nH]c2cccc(OP(=O)(O)O)c12 [psilocybin, 4-phosphoryloxy-N,N-dimethyltryptamine]
- PREM and PSV responses (Long Evans rats [1]; 0.05 mg/kg S.C., 24 rats, p=0.05): increase
- premature responses and perseverative responses (Long Evans rats [1]; 0.05 and 0.1 mg/kg, low responders (N=8), p<0.01 vs vehicle): marked increases
- motor activity (distance travelled, rearing counts), overt stereotypies incl. WDS and BMC [2]: no changes
- procognitive effect measured as % correct (Long Evans rats [3]; [5]): slight non-significant increase
- pro-cognitive effect measured as % hit (Long Evans rats [3]; [5]): increased
- pro-cognitive effect measured as % hit (Long Evans rats [3]; 0.05 mg/kg and 0.1 mg/kg S.C., low performers): increased
- response speed (Long Evans rats [3]; 0.05 mg/kg, low attentive cohort compared with vehicle): increased response speed
- performance: response speed, number of trials completed (Long Evans rats [3]; [6]): no effect on response speed, or number of trials completed
- premature or perseverative responses (Long Evans rats [3]; [6]): no effect on premature or perseverative responses
- pro-cognitive effect measured as % correct (Long Evans rats [3]; 0.05 and 0.1 mg/kg S.C., low performers): slight non-significant increase
- effect on accuracy (% correct and % hit) (Long Evans rats [3]; 0.05 and 0.1 mg/kg, low attentive subgroup (N=8) compared with vehicle): strongly evident
- detrimental effects on performance (motivation, motor control, attention, response speed) (Long Evans rats [3]; low doses used in PR and 5CSRTT studies (0.025-0.2 mg/kg S.C.)): no detrimental effects
- mean performance on Days 1-3 (Long Evans rats [4]; 10 s ITI challenge days, vs. vehicle, p=0.03): significantly improved
- % correct / performance (Long Evans rats [4]; 10 s ITI, Challenge Day 2 (D2, test day 9), vs vehicle): significant improvement; also recorded: significant (P=0.01) increase
- % correct responses (Long Evans rats [4]; challenging conditions 10 s ITI, 0.3 s SD, test days 5, 9 and 12, vs vehicle): performed better than vehicle treated animals
- increase in premature behaviors (Long Evans rats [4]; more taxing/challenge conditions 10 s ITI, 0.3 s SD): do not have an increase in premature behaviors
- increase in premature behaviors (Long Evans rats [4]; standard conditions): do not have an increase in premature behaviors
- correct attempts (Long Evans rats [4]; minipump, standard test conditions, over a period of time): does not increase the number of correct attempts; also recorded: did not show that psilocybin caused an increase in correct attempts
- signs of behavioral syndrome (WDS/BMC) (5-HT2A receptor activity; 0.3 mg/kg I.P and higher): significant signs of behavior syndrome
- signs of behavioral syndrome (WDS/BMC) (5-HT2A receptor activity; 0.03-0.1 mg/kg S.C.): no signs of behavioral syndrome
